Data taken from US9284283B2, “Macrocyclic compounds for modulating IL-17” (ENSEMBLE THERAPEUTICS CORPORATION, priority 2012, dated 2016).
“And” between values parts separate entries of the source, which are not always exact repeats. Equal entries are not always repeated. Each block holds one compound with its values, some of them ahead of it.

Key:
[1] = biological target: T1, biotinylated human IL-17 (binding to IL17R/Fc) (Homo sapiens, UniProt Q16552); assay: IL-17 competition ELISA II (captured IL17R/Fc, biotinylated IL-17)
T1 construct: purchased R&D Systems 317-ILB (IL-17, biotinylated); 177-IR (IL17R/Fc)
T1 sequence (Q16552 20-155 limits assumed): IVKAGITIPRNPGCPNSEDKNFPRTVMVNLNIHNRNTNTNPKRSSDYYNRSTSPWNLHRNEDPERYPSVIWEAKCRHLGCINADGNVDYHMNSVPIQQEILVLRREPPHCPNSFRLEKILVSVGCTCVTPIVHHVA
In short: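 Anti-human IgG-coated plates captured IL17R/Fc (10 nM), then compound (5-fold dilutions from 1 μM) and biotinylated human IL-17 (20 nM stock) were added for 30 min at room temperature in PBST. Bound IL-17 detected by streptavidin-HRP/TMB at 450 nm. IC50 from 4-parameter logistic fit between no-competitor and blank controls.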

[2] = test system: DNFB-treated BALB/c mice; assay: Murine model of delayed hypersensitivity (DNFB-induced ear edema); format: in vivo, mouse; details: for Reduction in edema (%): ear weight 24 h after DNFB challenge
Procedure: We used a murine model of fluorodinitrobenzene (DNFB)-induced ear edema to test the anti-inflammatory activity of both orally dosed and intraperitoneally dosed exemplary compounds of the invention. BALB/c mice (Harlan Sprague-Dawley, Inc., male, 6-8 weeks old) were topically treated on their shaved abdomen with 30 μL of 0.5% 1-fluoro-2,4-dinitrobenzene (DNFB) (4:1 acetone:olive oil) once on Day 0 and once on Day 1.
For oral dosing (“PO”), exemplary compounds of the invention were either suspended at 3 mg/mL in 20% Cremophor EL (Sigma) (20:80; Cremophor:water) or dissolved at 1 mg/mL or 3 mg/mL in D-α-tocopherol polyethylene glycol 1000 succinate (TPGS; Sigma)/PEG-400/water (20:60:20). For intraperitoneal dosing (“IP”), exemplary compounds of the invention were dissolved in DMSO at a concentration of 5 mg/mL. On day 7, the test compound was administered (PO at either 10 mg/kg or 30 mg/kg; IP at 1, 3, or 10 mg/kg) to DNFB-treated mice. Commercially available anti-mouse IL-17A (BioLegend) administered intraperitoneally at 5 mg/kg in PBS was used as a positive control. Thirty minutes later, 20 μL of 0.2% DNFB was applied to the right ear of animals and vehicle ([…]:olive oil) was applied to the left ear. One and four hours after DNFB challenge, a subset of mice was exsanguinated and plasma prepared from the blood. Twenty-four hours after challenge, the remaining mice were euthanized, and their ears were removed and weighed to determine the amount of edema. Plasma was assayed for interleukin-6, TNF-α, CXCL1, and interferon-γ concentrations using commercially-available assays.

[3] = test system: murine collagen-induced arthritis; assay: Mouse collagen-induced arthritis (CIA) model; format: in vivo; details: for reduction of overall mean Clinical Arthritis Score: FIG. 11
Procedure: Exemplary compounds of the invention were evaluated in a murine CIA model. […] mice (10/group) were anaesthetized with Isoflurane, shaved at the base of the tail, and injected intradermally with 150 μL of Freund's Complete Adjuvant (Sigma) containing bovine type II collagen (Elastin Products, Owensville, Mo.) (2 mg/mL) at the base of the tail on day 0 and again on day 21. On study days 24-25, onset of arthritis occurred and mice were randomized into treatment groups. Randomization into each group was done after swelling was obviously established in at least one paw (score of 1), and attempts were made to ensure approximately equal mean scores of 0.25 across the groups at the time of enrollment. Once a day oral treatment with 10 or 30 mg/kg of test compound in 20% Cremophor EL was initiated after enrollment and continued once a day as indicated through arthritis day 10. Mice were terminated on day 11. Clinical scores were calculated for each of the paws (right front, left front, right rear, and left rear) on arthritis days 1-11 and the results were summarized as a reduction in clinical arthritis score for all paws over the time period of dosing.

IC50 [1]: < 0.1 µM
Structure (SMILES): O=C1CNC(=O)[C@@H](Cc2ccc(NC(=O)[C@H](Cc3ccccc3Cl)NC(=O)Cc3ccccn3)cc2)NC(=O)CC2(CCCC2)CC(=O)NCCCCCN1 [Compound 226]

IC50 [1]: < 0.1 µM
Structure (SMILES): O=C1CNC(=O)[C@@H](Cc2ccc(NC(=O)[C@@H](NC(=O)Cc3ccccc3)C3CCCCC3)cc2)NC(=O)CC2(CCCC2)CC(=O)NCCCCCN1 [Compound 186]

Structure (SMILES): O=C1CNC(=O)[C@@H](Cc2ccc(NC(=O)[C@H](Cc3ccccc3Cl)NC(=O)Cc3ccccc3)cc2)NC(=O)CC2(CCCC2)CC(=O)NCCCCCN1 [Compound 159]
reduction in TNF-α, IFN-γ and edema as compared to a PBS control or DMSO control ([2]; i.p. 10 mg/kg, FIG. 1): statistically significant reduction | reduction in IL-6, IFN-γ and edema compared to a DMSO control ([2]; i.p. at 1 mg/kg, 3 mg/kg, or 10 mg/kg, FIG. 2): statistically significant reduction | Reduction in edema (%) ([2]; ip, 1 mg/kg): 17% | IFNγ Reduction (%) ([2]; ip, 1 mg/kg, plasma): 54.2% | IL6 Reduction (%) ([2]; ip, 1 mg/kg, plasma): 62.6% | Reduction in edema (%) ([2]; ip, 3 mg/kg): 44% | IFNγ Reduction (%) ([2]; ip, 3 mg/kg, plasma): 85.5% | IL6 Reduction (%) ([2]; ip, 3 mg/kg, plasma): 72.2% | Reduction in edema (%) ([2]; ip, 10 mg/kg): 54.1% and 54% | IL6 Reduction (%) ([2]; ip, 10 mg/kg, plasma): 78.6% | TNFα Reduction (%) ([2]; ip, 10 mg/kg, plasma): 21.7% | IL-6, IFN-γ, and edema, dose-dependent ([2]; orally dosed in TPGS/PEG400/Water vehicle, FIG. 5): effectively reduced | Reduction in edema (%) ([2]; po, 10 mg/kg): 19.0% | IFNγ Reduction (%) ([2]; po, 10 mg/kg, plasma): 24.2% | IL6 Reduction (%) ([2]; po, 10 mg/kg, plasma): 29.8% | Reduction in edema (%) ([2]; po, 30 mg/kg): 53.7% | IFNγ Reduction (%) ([2]; po, 30 mg/kg, plasma): 64.5% | IL6 Reduction (%) ([2]; po, 30 mg/kg, plasma): 58.3% | reduction of overall mean Clinical Arthritis Score ([3]; orally 10 mg/kg): 6% | reduction of overall mean Clinical Arthritis Score ([3]; orally 30 mg/kg): 11% | reduction in mean Clinical Arthritis Score on days 27-30 as compared to vehicle controls ([3]; orally 10 and 30 mg/kg in 20% Cremophor EL, FIG. 10): superior reduction

IC50 [1]: < 0.1 µM
Structure (SMILES): O=C1CNC(=O)[C@@H](Cc2ccc(NC(=O)[C@H](Cc3ccccc3Cl)NC(=O)c3cccnc3)cc2)NC(=O)CC2(CCCC2)CC(=O)NCCCCCN1 [Compound 194]
